This passage reports IC50 results from patent US20250353848A1, “HETEROCYCLIC PAD4 INHIBITORS” (Celgene Corporation, priority 2022, published 2025).

The target in experiment [1] is T1, hPAD4 enzyme (Homo sapiens, UniProt Q9UM07). The experiment is described as follows: RFMS Assay 2 (rapid-fire mass spectrum PAD4 inhibition assay, peptide substrate). The class given is biochemical. Conditions: 35 nM recombinant human PAD4, substrate TSTGGRQGSHH, room temperature for 30 minutes; read-out: human PAD4 (hPAD4) IC50, RFMS Assay 2. The method, then:
Stock compounds were dissolved and stored in 100% DMSO. Compound solutions were prepared via serial dilution at 3-fold intervals in DMSO with top compound concentration at […] in each assay. 0.25 μl of compound solution was transferred from the compound plate to the assay plate by using an acoustic dispenser. Final assay conditions: • Total reaction volume: 25 μl • Assay buffer: […] pH 7.4, 200 mM NaCl, 2 mM CaCl2, 5 mM DTT • 35 nM recombinant human PAD4 • 500 µM TSTGGRQGSHH (SEQ ID NO: 1) • 1.2% DMSO • Stop solution: 10% formic acid
Reaction mixtures were incubated at room temperature for 30 minutes. 10 μl each of the reaction mixtures was then mixed with 40 μl of 10% formic acid in a microtiter plate. The plate was frozen at −80° C. before shipping out on dry ice for RapidFire mass spectroscopy analysis.
Thawed samples were loaded onto the Rapid Fire 300 system (Agilent) wherein they were first sipped for 250 ms and then loaded onto a Agilent “C” (C18) cartridge using a mobile phase of water containing 0.09% formic acid/0.01% trifluoroacetic acid for 3000 ms desalting flowing at a rate of 1.5 ml/min. Once the samples were loaded and washed, a mobile phase of acetonitrile containing 0.09% formic acid/0.01% trifluoroacetic acid was used to elute the samples directly onto a Sciex API4000 triple quadrupole mass spectrometer for 3000 ms at a flow rate of 1.25 ml/min.
MRM transitions for substrate and product were monitored in positive ESI mode at m/z=562.3/969.7 and m/z=562.8/541.3 respectively. The dwell time for each transition was set at 100 ms, and the ESI voltage was used at 5500 with a source temperature of 650° C. Extracted ion peaks for each transition were integrated using the Rapid Fire Integrator software.

Experiment [2] has as its target T1, hPAD4 enzyme. The experiment is described as follows: RFMS Assay 1 (rapid-fire mass spectrum PAD4 inhibition assay, BAEE substrate). Format: biochemical. The following applies: 5 nM hPAD4 enzyme, 250 μM BAEE, 30 mins compound and enzyme preincubation at 37° C., 90 min enzyme/substrate reaction. The method in brief:
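Human PAD4 (5 nM) preincubated 30 min at 37 °C with compound (top 50 μM, 0.5% DMSO), then 250 μM BAEE for 90 min at 37 °C in pH 7.5 HEPES with 50 μM calcium, 5 μM TPEN, 1 mM DTT. Product derivatized with phenyl glyoxal; citrulline product quantified by RapidFire MS/MS MRM, normalized to internal standard.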

T1 sequence (Q9UM07 whole entry): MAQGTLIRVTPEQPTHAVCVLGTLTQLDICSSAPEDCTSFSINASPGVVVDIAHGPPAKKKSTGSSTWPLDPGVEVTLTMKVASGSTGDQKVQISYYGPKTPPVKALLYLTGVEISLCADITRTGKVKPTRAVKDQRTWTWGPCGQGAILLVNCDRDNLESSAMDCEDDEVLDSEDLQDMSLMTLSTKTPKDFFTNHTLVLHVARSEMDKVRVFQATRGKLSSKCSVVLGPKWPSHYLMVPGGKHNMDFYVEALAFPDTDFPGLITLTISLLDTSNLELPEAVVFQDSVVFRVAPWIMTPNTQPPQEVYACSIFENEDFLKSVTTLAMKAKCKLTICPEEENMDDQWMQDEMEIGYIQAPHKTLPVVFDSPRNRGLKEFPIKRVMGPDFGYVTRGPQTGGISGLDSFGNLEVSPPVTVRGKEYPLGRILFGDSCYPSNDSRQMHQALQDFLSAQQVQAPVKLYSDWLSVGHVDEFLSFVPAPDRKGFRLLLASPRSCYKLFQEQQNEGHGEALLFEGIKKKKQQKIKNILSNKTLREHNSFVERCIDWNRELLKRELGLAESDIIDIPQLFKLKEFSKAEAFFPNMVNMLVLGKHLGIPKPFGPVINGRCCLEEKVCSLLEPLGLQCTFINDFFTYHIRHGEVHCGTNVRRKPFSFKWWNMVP

With `COc1cccc2cc(-c3nc4cc5c(nc4n3C)CCN(C[C@H](N)CF)C5=O)n(Cc3nc(C)cs3)c12` [Example 14, (S)-7-(2-amino-3-fluoropropyl)-2-(7-methoxy-1-((4-methylthiazol-2-yl)methyl)-1H-indol-2-yl)-3-methyl-3,5,6,7-tetrahydro-8H-imidazo[4,5-b][1,6]naphthyridin-8-one], the half-inhibitory concentration (IC50) (in general, the concentration needed to halve the response being measured) in experiment [1] is 501 to 1000 nM; in experiment [2], 11 to 100 nM.
The matching figures for `COc1cccc2cc(-c3nc4cc5c(nc4n3C)CCN(C[C@H]3COCCN3)C5=O)n(CC3CC3)c12` [Example 27, (S)-2-(1-(cyclopropylmethyl)-7-methoxy-1H-indol-2-yl)-3-methyl-7-(morpholin-3-ylmethyl)-3,5,6,7-tetrahydro-8H-imidazo[4,5-b][1,6]naphthyridin-8-one]: over 1000 nM and 501 to 1000 nM.
The matching figures for `Cn1c(-c2cc3cccc(OCCn4ccnc4)c3n2CC2CC2)nc2cc3c(nc21)CCN(C[C@H](N)CF)C3=O` [Example 44, (S)-2-(7-(2-(1H-imidazol-1-yl)ethoxy)-1-(cyclopropylmethyl)-1H-indol-2-yl)-7-(2-amino-3-fluoropropyl)-3-methyl-3,5,6,7-tetrahydro-8H-imidazo[4,5-b][1,6]naphthyridin-8-one]: 11 to 100 nM and at most 10 nM.
Taken in the same sequence, the figures for `CC(Cc1cnco1)Oc1cc(F)cc2cc(-c3nc4cc5c(nc4n3C)CCN(C[C@H](N)CF)C5=O)n(CC3CC3)c12` (single isomer, unassigned) [Example 65a] were 101 to 500 nM and at most 10 nM.
Turning to `Cn1c(-c2cc3cccnc3n2CC2CC2)nc2cc3c(nc21)CCN(C[C@H](N)CF)C3=O` [Example 19, (S)-7-(2-amino-3-fluoropropyl)-2-(1-(cyclopropylmethyl)-1H-pyrrolo[2,3-b]pyridin-2-yl)-3-methyl-3,5,6,7-tetrahydro-8H-imidazo[4,5-b][1,6]naphthyridin-8-one], the half-inhibitory concentration (IC50) in experiment [1] was over 1000 nM; in experiment [2], 501 to 1000 nM.
The matching figures for `CC(Oc1cccc2cc(-c3nc4cc5c(nc4n3C)CCN(C[C@H](N)CF)C5=O)n(CC3CC3)c12)c1cc[nH]n1` (single isomer, unassigned) [Example 49a]: 11 to 100 nM and 11 to 100 nM.
The matching figures for `Cn1c(-c2cc3cccc(OCCc4cnn[nH]4)c3n2CC2CC2)nc2cc3c(nc21)CCN(C[C@H](N)CF)C3=O` [Example 47, (S)-2-(7-(2-(1H-1,2,3-triazol-5-yl)ethoxy)-1-(cyclopropylmethyl)-1H-indol-2-yl)-7-(2-amino-3-fluoropropyl)-3-methyl-3,5,6,7-tetrahydro-8H-imidazo[4,5-b][1,6]naphthyridin-8-one]: 11 to 100 nM and at most 10 nM.
Taken in the same sequence, the figures for `Cn1c(-c2cc3ccccc3n2CC2CC2)nc2cc3c(nc21)CCN(C[C@H](N)CF)C3=O` [Example 20, (S)-7-(2-amino-3-fluoropropyl)-2-(1-(cyclopropylmethyl)-1H-indol-2-yl)-3-methyl-3,5,6,7-tetrahydro-8H-imidazo[4,5-b][1,6]naphthyridin-8-one] were 501 to 1000 nM and over 1000 nM.
Regarding `Cn1c(-c2cc3cccc(OCCc4cnoc4)c3n2CC2CC2)nc2cc3c(nc21)CCN(C[C@H](N)CF)C3=O` [Example 39, (S)-7-(2-amino-3-fluoropropyl)-2-(1-(cyclopropylmethyl)-7-(2-(isoxazol-4-yl)ethoxy)-1H-indol-2-yl)-3-methyl-3,5,6,7-tetrahydro-8H-imidazo[4,5-b][1,6]naphthyridin-8-one], the concentration for half-maximal inhibition (IC50) is 11 to 100 nM in experiment [1] and at most 10 nM in experiment [2].
Taken in the same sequence, the figures for `Cn1c(-c2cc3cccc(OCCn4cncc4F)c3n2CC2CC2)nc2cc3c(nc21)CCN(C[C@H](N)CF)C3=O` [Example 42, (S)-7-(2-amino-3-fluoropropyl)-2-(1-(cyclopropylmethyl)-7-(2-(5-fluoro-1H-imidazol-1-yl)ethoxy)-1H-indol-2-yl)-3-methyl-3,5,6,7-tetrahydro-8H-imidazo[4,5-b][1,6]naphthyridin-8-one] were 101 to 500 nM and 11 to 100 nM.
`CC(Oc1cccc2cc(-c3nc4cc5c(nc4n3C)CCN(C[C@H](N)CF)C5=O)n(CC3CC3)c12)c1cc[nH]n1` (single isomer, unassigned) [Example 49b]: the IC50 in experiment [1] and in experiment [2] was 101 to 500 nM throughout.
With `COCCn1c(-c2nc3cc4c(nc3n2C)CCN(C[C@H](N)CF)C4=O)cc2cccc(OC)c21` [Example 2, (S)-7-(2-amino-3-fluoropropyl)-2-(7-methoxy-1-(2-methoxyethyl)-1H-indol-2-yl)-3-methyl-3,5,6,7-tetrahydro-8H-imidazo[4,5-b][1,6]naphthyridin-8-one], the 50% inhibitory concentration (IC50) in experiment [1] and in experiment [2] was over 1000 nM in each case.
Take `Cn1c(-c2cc3cccc(OC(F)Cn4cncc4F)c3n2CC2CC2)nc2cc3c(nc21)CCN(C[C@H](N)CF)C3=O` (single isomer, unassigned) [Example 75a]: the 50% inhibitory concentration (IC50) in experiment [1] is 11 to 100 nM; in experiment [2], at most 10 nM.
The matching figures for `COc1cc(F)cc2cc(-c3nc4cc5c(nc4n3C)CCN(C[C@H](N)CF)C5=O)n(Cc3ccno3)c12` [Example 22, (S)-7-(2-amino-3-fluoropropyl)-2-(5-fluoro-1-(isoxazol-5-ylmethyl)-7-methoxy-1H-indol-2-yl)-3-methyl-3,5,6,7-tetrahydro-8H-imidazo[4,5-b][1,6]naphthyridin-8-one]: 101 to 500 nM and 101 to 500 nM.
Taken in the same sequence, the figures for `Cn1c(-c2cc3cccc(OCCc4ccon4)c3n2CC2CC2)nc2cc3c(nc21)CCN(C[C@H](N)CF)C3=O` [Example 46, (S)-7-(2-amino-3-fluoropropyl)-2-(1-(cyclopropylmethyl)-7-(2-(isoxazol-3-yl)ethoxy)-1H-indol-2-yl)-3-methyl-3,5,6,7-tetrahydro-8H-imidazo[4,5-b][1,6]naphthyridin-8-one] were 11 to 100 nM and at most 10 nM.
The matching figures for `COc1cccc2cc(-c3nc4cc5c(nc4n3C)CCN(C[C@H](N)CF)C5=O)n(Cc3cc(C)no3)c12` [Example 12, (S)-7-(2-amino-3-fluoropropyl)-2-(7-methoxy-1-((3-methylisoxazol-5-yl)methyl)-1H-indol-2-yl)-3-methyl-3,5,6,7-tetrahydro-8H-imidazo[4,5-b][1,6]naphthyridin-8-one]: 101 to 500 nM and 101 to 500 nM.
Take `Cn1c(-c2cc3ccnc(OC[C@@H]4CNC(=O)C4)c3n2CC2CC2)nc2cc3c(nc21)CCN(C[C@H](N)CF)C3=O` [Example 82, 7-((S)-2-amino-3-fluoropropyl)-2-(1-(cyclopropylmethyl)-7-(((S)-5-oxopyrrolidin-3-yl)methoxy)-1H-pyrrolo[2,3-c]pyridin-2-yl)-3-methyl-3,5,6,7-tetrahydro-8H-imidazo[4,5-b][1,6]naphthyridin-8-one]: the concentration for half-maximal inhibition (IC50) in experiment [1] and in experiment [2] was 101 to 500 nM in each case.
Regarding `[2H]C([2H])(Oc1cccc2cc(-c3nc4cc5c(nc4n3C)CCN(C[C@H](N)CF)C5=O)n(CC3CC3)c12)C([2H])([2H])n1ccnc1` [Example 95, (S)-2-(7-(2-(1H-imidazol-1-yl)ethoxy-1,1,2,2-d4)-1-(cyclopropylmethyl)-1H-indol-2-yl)-7-(2-amino-3-fluoropropyl)-3-methyl-3,5,6,7-tetrahydro-8H-imidazo[4,5-b][1,6]naphthyridin-8-one], the IC50 in experiment [1] was 11 to 100 nM; in experiment [2], at most 10 nM.
Taken in the same sequence, the figures for `C[C@H](Cn1ccnc1)Oc1cccc2cc(-c3nc4cc5c(nc4n3C)CCN(C[C@H](N)CF)C5=O)n(CC3CC3)c12` [Example 62, 2-(7-(((R)-1-(1H-imidazol-1-yl)propan-2-yl)oxy)-1-(cyclopropylmethyl)-1H-indol-2-yl)-7-((S)-2-amino-3-fluoropropyl)-3-methyl-3,5,6,7-tetrahydro-8H-imidazo[4,5-b][1,6]naphthyridin-8-one] were 101 to 500 nM and 11 to 100 nM.
The matching figures for `C[C@@H](COc1cccc2cc(-c3nc4cc5c(nc4n3C)CCN(C[C@H](N)CF)C5=O)n(CC3CC3)c12)n1cnc(F)c1` [Example 86, 7-((S)-2-amino-3-fluoropropyl)-2-(1-(cyclopropylmethyl)-7-((S)-2-(4-fluoro-1H-imidazol-1-yl)propoxy)-1H-indol-2-yl)-3-methyl-3,5,6,7-tetrahydro-8H-imidazo[4,5-b][1,6]naphthyridin-8-one]: 11 to 100 nM and at most 10 nM.
